From US9828379B2 (priority 2013, dated 2017)

Tests used:
MAGL [1] = target: T1, MAGL (Mus musculus, UniProt O35678); assay: biochemical; details: mouse; in vitro competitive ABPP; read-out: Mouse (IC50 value, nM) MAGL
T1 sequence (O35678 1-303): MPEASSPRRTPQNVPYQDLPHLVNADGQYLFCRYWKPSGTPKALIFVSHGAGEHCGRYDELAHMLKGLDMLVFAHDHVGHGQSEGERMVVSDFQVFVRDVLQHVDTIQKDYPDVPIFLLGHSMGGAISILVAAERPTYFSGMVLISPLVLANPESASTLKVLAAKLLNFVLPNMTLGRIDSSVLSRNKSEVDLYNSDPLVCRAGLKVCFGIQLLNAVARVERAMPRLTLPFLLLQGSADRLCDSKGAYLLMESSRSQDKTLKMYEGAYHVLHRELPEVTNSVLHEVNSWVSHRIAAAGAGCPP

FAAH [2] = target: T2, FAAH (Mus musculus, UniProt O08914); assay: biochemical; details: in vitro competitive ABPP
T2 sequence (O08914 1-579): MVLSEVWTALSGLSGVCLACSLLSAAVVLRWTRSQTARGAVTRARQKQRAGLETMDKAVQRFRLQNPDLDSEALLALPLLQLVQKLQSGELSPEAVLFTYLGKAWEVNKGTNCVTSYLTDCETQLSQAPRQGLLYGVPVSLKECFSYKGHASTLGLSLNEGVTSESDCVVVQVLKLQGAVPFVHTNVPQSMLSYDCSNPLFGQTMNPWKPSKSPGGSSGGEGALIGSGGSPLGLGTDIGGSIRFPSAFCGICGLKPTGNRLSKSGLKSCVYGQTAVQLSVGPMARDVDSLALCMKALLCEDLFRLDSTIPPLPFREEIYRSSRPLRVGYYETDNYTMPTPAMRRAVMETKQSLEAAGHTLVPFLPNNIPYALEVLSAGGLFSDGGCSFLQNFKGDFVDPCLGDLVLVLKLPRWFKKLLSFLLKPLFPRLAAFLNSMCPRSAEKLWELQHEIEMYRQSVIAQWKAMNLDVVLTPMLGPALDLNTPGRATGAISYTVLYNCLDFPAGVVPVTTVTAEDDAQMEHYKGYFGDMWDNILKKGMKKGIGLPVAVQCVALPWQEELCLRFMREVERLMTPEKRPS

ABHD6 [3] = target: T3, ABHD6 (Mus musculus, UniProt Q8R2Y0); assay: biochemical; details: in vitro competitive ABPP
T3 sequence (Q8R2Y0 1-336): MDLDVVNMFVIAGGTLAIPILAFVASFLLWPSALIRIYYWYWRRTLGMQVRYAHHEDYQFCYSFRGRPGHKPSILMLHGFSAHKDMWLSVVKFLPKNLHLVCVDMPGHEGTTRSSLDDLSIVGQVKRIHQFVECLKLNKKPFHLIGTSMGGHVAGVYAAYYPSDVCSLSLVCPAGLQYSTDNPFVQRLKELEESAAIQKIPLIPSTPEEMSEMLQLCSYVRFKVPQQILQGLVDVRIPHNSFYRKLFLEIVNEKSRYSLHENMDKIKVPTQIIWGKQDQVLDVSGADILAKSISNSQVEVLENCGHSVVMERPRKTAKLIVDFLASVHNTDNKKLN

FAAH [4] = target: T2, FAAH; assay: In vitro competitive activity-based protein profiling (Table 2, % inhibition at 1 μM); format: biochemical; details: read-out: % Inhibition at 1 μM FAAH
ABHD6 [5] = target: T3, ABHD6; assay: as above; format: biochemical; details: read-out: % Inhibition at 1 μM ABHD6
MAGL [6] = target: T1, MAGL; assay: as above; format: biochemical; details: read-out: % Inhibition at 1 μM MAGL
Method: After 30 min, FP—Rh (1.0 μL, 50 μM in DMSO) was added and the mixture was incubated for another 30 min at 37° C. Reactions were quenched with SDS loading buffer (50 μL-4×) and run on SDS-PAGE.
Cell lysates were diluted with mock proteomes for use in competitive ABPP experiments.

Mouse brain MAGL = target: T4, Mouse brain MAGL (Mus musculus, UniProt O35678); assay: Mouse brain proteomes from inhibitor treated mice (oral gavage, ABPP analysis); format: in vivo; details: p.o., sacrificed 4 h following administration
T4 construct: from tissue; host or cells: brain of wild-type C57Bl/6J mice dosed by oral gavage
T4 sequence (O35678 1-303): T1 sequence (O35678 1-303)
Method: After 30 min, FP—Rh (1.0 μL, 50 μM in DMSO) was added and the mixture was incubated for another 30 min at 37° C. Reactions were quenched with SDS loading buffer (50 μL-4×) and run on SDS-PAGE. Following gel imaging, serine hydrolase activity was determined by measuring fluorescent intensity of gel bands corresponding to MAGL, ABHD6 and FAAH using ImageJ 1.43 u software.
Inhibitors were administered to wild-type C57Bl/6J by oral gavage in a vehicle of polyethylene glycol. Each animal was sacrificed 4 h following administration and brain proteomes were prepared and analyzed according to previously established methods (See Niphakis, M. J., et al. (2011) ACS Chem. Neurosci. and Long, J. Z., et al. Nat. Chem. Biol. 5:37-44).

| Structure (SMILES) | IC50 (MAGL [1]) [nM] | IC50 (FAAH [2]) [nM] | IC50 (ABHD6 [3]) [nM] | inhibition at 1 µM (FAAH [4]) [%] | inhibition at 1 µM (ABHD6 [5]) [%] | inhibition at 1 µM (MAGL [6]) [%] | inhibition at 5 mg/kg (Mouse brain MAGL) [%] |
| --- | --- | --- | --- | --- | --- | --- | --- |
| Cc1c(CN2CC3CN(C(=O)OC(C(F)(F)F)C(F)(F)F)CC3C2)cccc1N1C2CCC1COC2 (centres unmarked) [Example 127, 1,1,1,3,3,3-hexafluoropropan-2-yl 5-[(2-methyl-3-[3-oxa-8-azabicyclo[3.2.1]octan-8-yl]phenyl)methyl]-octahydropyrrolo[3,4-c]pyrrole-2-carboxylate] | < 100 | 1000 to 10000 | 1000 to 10000 | < 25 | 25 to 75 | > 75 | 25 to 75 |
| CCn1cc(CN2CC3CN(C(=O)OC(C(F)(F)F)C(F)(F)F)CC3C2)c(-c2ccc(N3CCC3)cc2)n1 (centres unmarked) [Example 69, 1,1,1,3,3,3-Hexafluoropropan-2-yl 5-([3-[4-(azetidin-1-yl)phenyl]-1-ethyl-1H-pyrazol-4-yl]methyl)-octahydropyrrolo[3,4-c]pyrrole-2-carboxylate] | < 100 | 1000 to 10000 | 1000 to 10000 | < 25 | 25 to 75 | > 75 | ≤ 25 |
| CC(C)c1cc(CN2CC3CN(C(=O)OC(C(F)(F)F)C(F)(F)F)CC3C2)n(C2CCCCC2)n1 (centres unmarked) [Example 61, 1,1,1,3,3,3-Hexafluoropropan-2-yl 5-[[1-cyclohexyl-3-(propan-2-yl)-1H-pyrazol-5-yl]methyl]-octahydropyrrolo[3,4-c]pyrrole-2-carboxylate] | < 100 | > 10000 | 1000 to 10000 | < 25 | 25 to 75 | > 75 | ≥ 75 |
| Cc1c(CN2CC3CN(C(=O)OC(C(F)(F)F)C(F)(F)F)CC3C2)cccc1N1CCCCC1 (centres unmarked) [Example 29, 1,1,1,3,3,3-Hexafluoropropan-2-yl 5-[[2-methyl-3-(piperidin-1-yl)phenyl]methyl]-octahydropyrrolo[3,4-c]pyrrole-2-carboxylate] | < 100 | 1000 to 10000 | > 10000 | 25 to 75 | < 25 | > 75 | ≤ 25 |
| CCn1ncc(CN2CC3CN(C(=O)OC(C(F)(F)F)C(F)(F)F)CC3C2)c1C(=O)NC1CC1 (centres unmarked) [Example 74] | < 100 | > 10000 | 100 to 1000 | < 25 | 25 to 75 | > 75 | 25 to 75 |
| O=C(OC(C(F)(F)F)C(F)(F)F)N1CC2CN(Cc3ccc(Cl)cc3N3CCC(C(=O)N4CCCC4)CC3)CC2C1 (centres unmarked) [Example 37, 1,1,1,3,3,3-Hexafluoropropan-2-yl 5-[(4-chloro-2-[4-[(pyrrolidin-1-yl)carbonyl]piperidin-1-yl]phenyl)methyl]-octahydropyrrolo[3,4-c]pyrrole-2-carboxylate] | < 100 | 1000 to 10000 | 1000 to 10000 | 25 to 75 | < 25 | > 75 | ≤ 25 |
| Cc1ccc(CN2CC3CN(C(=O)OC(C(F)(F)F)C(F)(F)F)CC3C2)c(-c2ccccc2)c1 (centres unmarked) [Example 207, 1,1,1,3,3,3-hexafluoropropan-2-yl 5-((5-methyl-[1,1′-biphenyl]-2-yl)methyl)hexahydropyrrolo[3,4-c]pyrrole-2(1H)-carboxylate] | 100 to 1000 | 1000 to 10000 | 1000 to 10000 | < 25 | < 25 | > 75 | ≥ 75 |
| CC(=O)N1CCC2(CCN(c3ccccc3CN3CC4CN(C(=O)OC(C(F)(F)F)C(F)(F)F)CC4C3)C2)C1 (centres unmarked) [Example 135, 1,1,1,3,3,3-hexafluoropropan-2-yl 5-[(2-[7-acetyl-2,7-diazaspiro[4.4]nonan-2-yl]phenyl)methyl]-octahydropyrrolo[3,4-c]pyrrole-2-carboxylate] | < 100 | 1000 to 10000 | 1000 to 10000 | < 25 | < 25 | > 75 | ≤ 25 |
